The results in this text go back to ChEMBL document CHEMBL4819147, “Design, synthesis and biological evaluation of novel molecules as potent PARP-1 inhibitors” (Bioorg Med Chem Lett, 2021).

Series [1] concerns the target T1, Poly [ADP-ribose] polymerase 1 (Homo sapiens, UniProt P09874). The experiment in a line: Inhibition of PARP1 (unknown origin).
Series [2] relates to HCT-116. The experiment in a line: Antiproliferative activity against BRCA2-deficient human HCT116 cells assessed as cell growth inhibition. The format is functional, cell-based.
The subject of the next series is HCC1937. The experiment in a line: Antiproliferative activity against BRCA1-deficient human HCC1937 cells assessed as cell growth inhibition. In kind it is functional, cell-based.
The nature of series [3]: Octanol-water partition coefficient, logP of the compound. In kind it is physicochemical.
Series [4] has as its target T1, Poly [ADP-ribose] polymerase 1. As to the kind of experiment: Inhibition of PARP1 (unknown origin) at 10 nM relative to control.
Series [5] can be described thus: Intrinsic clearance in human liver microsomes incubated for 50 mins. In kind it is ADME, Microsome. (Liver microsomes are vesicles of endoplasmic reticulum, rich in cytochrome P450 enzymes.)
A short description of series [6]: Half life in human liver microsomes incubated for 50 mins. In kind it is ADME, Microsome.
Series [7] deals with HCT-116. As to the kind of experiment: Potency index, ratio of olaparibIC50 to test compound IC50 for antiproliferative activity against BRCA2-deficient human HCT116 cells assessed as cell growth inhibition. In kind it is functional.

Molecules are shown by their SMILES.

T1 sequence (P09874 whole entry): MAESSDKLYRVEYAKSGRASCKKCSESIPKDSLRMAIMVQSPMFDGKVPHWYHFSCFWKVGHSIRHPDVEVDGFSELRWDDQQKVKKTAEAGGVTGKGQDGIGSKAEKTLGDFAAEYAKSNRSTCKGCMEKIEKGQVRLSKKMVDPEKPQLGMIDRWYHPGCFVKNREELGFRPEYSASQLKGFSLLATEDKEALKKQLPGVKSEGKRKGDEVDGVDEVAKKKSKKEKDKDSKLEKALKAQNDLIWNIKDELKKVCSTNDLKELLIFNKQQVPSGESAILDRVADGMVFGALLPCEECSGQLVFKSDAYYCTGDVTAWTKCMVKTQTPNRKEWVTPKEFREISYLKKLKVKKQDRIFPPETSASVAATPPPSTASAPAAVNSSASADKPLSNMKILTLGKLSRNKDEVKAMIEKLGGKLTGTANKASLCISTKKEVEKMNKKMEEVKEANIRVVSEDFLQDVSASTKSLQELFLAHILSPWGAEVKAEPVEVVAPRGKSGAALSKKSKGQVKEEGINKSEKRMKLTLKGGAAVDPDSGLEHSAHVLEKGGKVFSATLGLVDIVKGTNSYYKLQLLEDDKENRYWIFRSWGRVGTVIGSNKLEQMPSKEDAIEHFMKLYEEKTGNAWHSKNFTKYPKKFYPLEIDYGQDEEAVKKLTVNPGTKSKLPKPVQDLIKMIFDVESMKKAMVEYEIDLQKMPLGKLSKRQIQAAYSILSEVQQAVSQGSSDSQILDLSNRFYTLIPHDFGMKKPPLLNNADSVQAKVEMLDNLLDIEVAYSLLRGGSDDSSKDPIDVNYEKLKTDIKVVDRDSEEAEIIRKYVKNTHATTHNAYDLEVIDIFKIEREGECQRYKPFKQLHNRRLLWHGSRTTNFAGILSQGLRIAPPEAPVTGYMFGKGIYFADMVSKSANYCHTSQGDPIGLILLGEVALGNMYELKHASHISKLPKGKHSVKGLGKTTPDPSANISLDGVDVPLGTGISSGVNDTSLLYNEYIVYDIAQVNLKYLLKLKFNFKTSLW

As for `NC(=O)c1cncc2[nH]c(C3CCN(C(=O)c4cc(Cc5n[nH]c(=O)c6ccccc56)ccc4F)CC3)nc12`, the IC50 – broadly, the concentration at which inhibition is half-maximal – in series [1] turned out to be 0.23 nM; with HCT-116 [2], 161000 nM; with HCC1937, 130000 nM.
In the case of `O=C(c1cc(Cc2n[nH]c(=O)c3ccccc23)ccc1F)N1CCN(C(=O)C2CC2)CC1` [OLAPARIB], the logP (usually a log measure of how a compound divides between an organic and an aqueous phase) in series [3] came to 2.79. The results for the IC50 with HCT-116 [2] and in the series with HCC1937 were 5860 nM and 13000 nM, respectively.
`COc1ncc(C(N)=O)c2nc(C3CCN(C(=O)c4cc(Cc5n[nH]c(=O)c6ccccc56)ccc4F)CC3)[nH]c12`: the inhibition – broadly, the relative decrease from the control value, in per cent – in series [4] was 98%. The compound also yielded an IC50 in series [1] of 2.4 nM.
In series [3], `O=C(c1cc(Cc2n[nH]c(=O)c3ccccc23)ccc1F)N1CCN(c2nc3ccccc3[nH]2)CC1` had a logP of 4.15. Moreover, the inhibition in series [4] is 100%. Further, the IC50 is 0.19 nM in series [1], 490 nM in the series with HCT-116 [2] and 610 nM in the series on HCC1937.
As to `Cc1ccc2nc3n(c2c1)CCN(C(=O)c1cc(Cc2n[nH]c(=O)c4ccccc24)ccc1F)C3`, the IC50 in series [1] was found to be 0.47 nM; in the series on HCT-116 [2] it was 10 nM; in the series with HCC1937 it was 11.6 nM.
As to `O=c1[nH]nc(Cc2ccc(F)c(CN3CCC(c4nc5ccccc5[nH]4)CC3)c2)c2ccccc12`, the inhibition in series [4] came to 47%.
Compound `O=C(c1cc(Cc2n[nH]c(=O)c3ccccc23)ccc1F)N1CCn2c(nc3ccc(F)cc32)C1` returned a CLH in series [5] of 40 µL/min/mg. In series [3], this compound returned a logP of 4.83. In addition, the half-life (commonly the time needed for the level to fall by half in the phase considered) in series [6] was determined as 2.89 h. In addition, the values for the IC50 (in series [1]; with HCT-116 [2]; in the series on HCC1937) were 0.51 nM, 6.62 nM and 12.7 nM, respectively. Moreover, the “Ratio IC50” value in the series with HCT-116 [7] is reported as 885.
As to `O=C(c1cc(Cc2n[nH]c(=O)c3ccccc23)ccc1F)N1CCn2c(nc3ccc(Cl)cc32)C1`, the IC50 in series [1] turned out to be 0.4 nM; with HCT-116 [2], 11.9 nM; in the series on HCC1937 it was 11.7 nM.
Consider `CCOc1ncc(C(N)=O)c2nc(C3CCN(C(=O)c4cc(Cc5n[nH]c(=O)c6ccccc56)ccc4F)CC3)[nH]c12`, for which the inhibition in series [4] came to 100%. Also, in series [1], the IC50 was 1.7 nM.
On the same counts, the results for `O=C(c1cc(Cc2n[nH]c(=O)c3ccccc23)ccc1F)N1CCC(c2nc3ccccc3[nH]2)CC1` are 100% and 0.63 nM.
Regarding `O=c1[nH]nc(Cc2ccc(F)c(CN3CCN(c4nc5ccccc5[nH]4)CC3)c2)c2ccccc12`, in series [4], the inhibition was determined as 42%.
On to `O=C(c1cc(Cc2n[nH]c(=O)c3ccccc23)ccc1F)N1CCn2c(nc3ccccc32)C1`, for which the IC50 in series [1] is 0.49 nM.
As to `COc1nnc(Cc2ccc(F)c(C(=O)N3CCC(c4nc5c(C(N)=O)cncc5[nH]4)CC3)c2)c2ccccc12`, the inhibition in series [4] is 40%.
